Experiment [1] concerns the target T1, AR-VP16 (Homo sapiens, UniProt P10275).
T1 sequence (P10275 560-920 limits assumed): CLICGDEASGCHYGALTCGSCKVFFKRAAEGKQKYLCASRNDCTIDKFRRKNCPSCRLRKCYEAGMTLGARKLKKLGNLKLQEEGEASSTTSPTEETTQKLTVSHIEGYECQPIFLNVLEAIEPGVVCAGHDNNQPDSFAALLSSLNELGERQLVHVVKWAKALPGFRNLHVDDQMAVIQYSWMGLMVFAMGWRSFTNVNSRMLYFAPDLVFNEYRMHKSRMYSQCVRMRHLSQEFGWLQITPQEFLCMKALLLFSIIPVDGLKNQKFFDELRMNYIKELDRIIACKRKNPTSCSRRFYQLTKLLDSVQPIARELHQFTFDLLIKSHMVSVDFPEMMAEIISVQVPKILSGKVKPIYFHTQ
The experiment can be described thus: AR-VP16 DNA Binding Assay, agonist mode (HepG2 cells). The following applies: Emax >20x DMSO control = agonist. It counts as cell-based.

Experiment [2] has as its target T1, AR-VP16. Kind of experiment: AR-VP16 DNA Binding Assay, antagonist mode (HepG2 cells, 0.1 nM R1881). It is filed as cell-based. The procedure, abridged:
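Transfected HepG2 cells expressing AR-VP16 received serially diluted compound in charcoal-stripped-serum RPMI the day after transfection, with 0.1 nM R1881 (final) added only for antagonist testing. After 48 h, cells were lysed for measurement.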

`N#Cc1ncc(N2C(=O)C3(CCC3)N(c3cccc(F)c3)C2=S)cc1C(F)(F)F` [Compound 27, 5-(5-(3-Fluorophenyl)-8-oxo-6-thioxo-5,7-diazaspiro[3.4]octan-7-yl)-3-(trifluoromethyl)picolinonitrile]: on AR-VP16 [1], the “ARVP16 DNA Binding Assay (Agonist mode): Agonist?” value (shortened to “ARVP16 DNA Binding Assay”) is reported as “No (Agonist defined as a compound whose Emax in the ARVP16 DNA Binding Assay (Agonist mode) is >20x DMSO control)”. Besides, the IC50 at AR-VP16 [2] is below 1 µM.

Turning to `N#Cc1ncc(N2C(=O)C3(CCC3)N(c3ccc(C(=O)N4CCCC4)c(F)c3)C2=S)cc1C(F)(F)F` [Compound 270, 5-(5-(3-Fluoro-4-(pyrrolidine-1-carbonyl)phenyl)-8-oxo-6-thioxo-5,7-diazaspiro[3.4]octan-7-yl)-3-(trifluoromethyl)picolinonitrile], the “ARVP16 DNA Binding Assay” value on AR-VP16 [1] is reported as “No (Agonist defined as a compound whose Emax in the ARVP16 DNA Binding Assay (Agonist mode) is >20x DMSO control)”. The molecule further yielded an IC50 at AR-VP16 [2] above 1 µM.

As to `N#Cc1ncc(N2C(=O)C3(CCC3)N(c3ccc4ncoc4c3)C2=S)cc1C(F)(F)F` [Compound 125, 5-(5-(Benzo[d]oxazol-6-yl)-8-oxo-6-thioxo-5,7-diazaspiro[3.4]octan-7-yl)-3-(trifluoromethyl)picolinonitrile], the “ARVP16 DNA Binding Assay” value at AR-VP16 [1] was “No (Agonist defined as a compound whose Emax in the ARVP16 DNA Binding Assay (Agonist mode) is >20x DMSO control)”. For the same molecule, on AR-VP16 [2], the IC50 was below 1 µM.

Take `N#Cc1ncc(N2C(=O)C3(CCC3)N(c3ccc(OCCc4ccccc4)c(F)c3)C2=S)cc1C(F)(F)F` [Compound 188, 5-(5-(3-Fluoro-4-phenethoxyphenyl)-8-oxo-6-thioxo-5,7-diazaspiro[3.4]octan-7-yl)-3-(trifluoromethyl)picolinonitrile]: the “ARVP16 DNA Binding Assay” value on AR-VP16 [1] is “No (Agonist defined as a compound whose Emax in the ARVP16 DNA Binding Assay (Agonist mode) is >20x DMSO control)”. Further, at AR-VP16 [2], the IC50 was below 1 µM.

As to `CCOC(=O)CNC(=O)c1ccc(N2C(=S)N(c3cnc(C#N)c(C(F)(F)F)c3)C(=O)C23CCC3)cc1F` [Compound 245, Ethyl 2-(4-(7-(6-cyano-5-(trifluoromethyl)pyridin-3-yl)-8-oxo-6-thioxo-5,7-diazaspiro[3.4]octan-5-yl)-2-fluorobenzamido)acetate], the “ARVP16 DNA Binding Assay” value on AR-VP16 [1] is recorded as “No (Agonist defined as a compound whose Emax in the ARVP16 DNA Binding Assay (Agonist mode) is >20x DMSO control)”. At AR-VP16 [2], this molecule registered an IC50 above 1 µM.

As for `CN(C)S(=O)(=O)c1ccc(N2C(=S)N(c3cnc(C#N)c(C(F)(F)F)c3)C(=O)C23CCC3)cc1` [Compound 121, 4-(7-(6-Cyano-5-(trifluoromethyl)pyridin-3-yl)-8-oxo-6-thioxo-5,7-diazaspiro[3.4]octan-5-yl)-N,N-dimethylbenzenesulfonamide], on AR-VP16 [1], the “ARVP16 DNA Binding Assay” value is reported as “No (Agonist defined as a compound whose Emax in the ARVP16 DNA Binding Assay (Agonist mode) is >20x DMSO control)”. The IC50 at AR-VP16 [2] was above 1 µM.

Regarding `Cc1ccc(CN2C(=S)N(c3cnc(C#N)c(C(F)(F)F)c3)C(=O)C23CCC3)cc1` [Compound 84, 5-(5-(4-Methylbenzyl)-8-oxo-6-thioxo-5,7-diazaspiro[3.4]octan-7-yl)-3-(trifluoromethyl)picolinonitrile], the “ARVP16 DNA Binding Assay” value at AR-VP16 [1] is given as “Yes (Agonist defined as a compound whose Emax in the ARVP16 DNA Binding Assay (Agonist mode) is >20x DMSO control)”. The IC50 on AR-VP16 [2] is below 1 µM.

In the case of `CN1CCC(Oc2ccc(N3C(=S)N(c4cnc(C#N)c(C(F)(F)F)c4)C(=O)C34CCC4)c(F)c2)CC1` [Compound 190, 5-(5-(2-Fluoro-4-((1-methylpiperidin-4-yl)oxy)phenyl)-8-oxo-6-thioxo-5,7-diazaspiro[3.4]octan-7-yl)-3-(trifluoromethyl)picolinonitrile], at AR-VP16 [1], the “ARVP16 DNA Binding Assay” value is given as “No (Agonist defined as a compound whose Emax in the ARVP16 DNA Binding Assay (Agonist mode) is >20x DMSO control)”. The same molecule showed an IC50 at AR-VP16 [2] below 1 µM.

In the case of `N#Cc1ncc(N2C(=O)C3(CCC3)N(c3ccccc3CO)C2=S)cc1C(F)(F)F` [Compound 68, 5-(5-(2-(Hydroxymethyl)phenyl)-8-oxo-6-thioxo-5,7-diazaspiro[3.4]octan-7-yl)-3-(trifluoromethyl)picolinonitrile], the “ARVP16 DNA Binding Assay” value at AR-VP16 [1] is listed as “No (Agonist defined as a compound whose Emax in the ARVP16 DNA Binding Assay (Agonist mode) is >20x DMSO control)”. The same molecule showed an IC50 at AR-VP16 [2] above 1 µM.

As to `N#Cc1ncc(N2C(=O)C3(CCC3)N(c3ccc(C(=O)NCc4ccncc4)c(F)c3)C2=S)cc1C(F)(F)F` [Compound 259, 4-(7-(6-Cyano-5-(trifluoromethyl)pyridin-3-yl)-8-oxo-6-thioxo-5,7-diazaspiro[3.4]octan-5-yl)-2-fluoro-N-(pyridin-4-ylmethyl)benzamide], the “ARVP16 DNA Binding Assay” value at AR-VP16 [1] is listed as “No (Agonist defined as a compound whose Emax in the ARVP16 DNA Binding Assay (Agonist mode) is >20x DMSO control)”. The molecule also had an IC50 on AR-VP16 [2] below 1 µM.

With `CNC(=O)c1ccc(N2C(=S)N(c3cnc(C#N)c(OC)c3)C(=O)C23CCC3)cc1F` [Compound 60, 4-(7-(6-Cyano-5-methoxypyridin-3-yl)-8-oxo-6-thioxo-5,7-diazaspiro[3.4]octan-5-yl)-2-fluoro-N-methylbenzamide], the “ARVP16 DNA Binding Assay” value at AR-VP16 [1] is listed as “Yes (Agonist defined as a compound whose Emax in the ARVP16 DNA Binding Assay (Agonist mode) is >20x DMSO control)”. In addition, the IC50 at AR-VP16 [2] was below 1 µM.

For `N#Cc1ncc(N2C(=O)C3(CCC3)N(c3ccc(OCCN4CCCCC4)cc3F)C2=S)cc1C(F)(F)F` [Compound 187, 5-(5-(2-Fluoro-4-(2-(piperidin-1-yl)ethoxy)phenyl)-8-oxo-6-thioxo-5,7-diazaspiro[3.4]octan-7-yl)-3-(trifluoromethyl)picolinonitrile], the “ARVP16 DNA Binding Assay” value on AR-VP16 [1] is listed as “No (Agonist defined as a compound whose Emax in the ARVP16 DNA Binding Assay (Agonist mode) is >20x DMSO control)”. Besides, at AR-VP16 [2], the IC50 is below 1 µM.

`Cc1cc(N2C(=O)C3(CCC3)N(c3ccc(C(=O)Nc4ccc(Cl)cc4)c(F)c3)C2=S)cnc1C#N` [Compound 296, N-(4-Chlorophenyl)-4-(7-(6-cyano-5-methylpyridin-3-yl)-8-oxo-6-thioxo-5,7-diazaspiro[3.4]octan-5-yl)-2-fluorobenzamide]: the “ARVP16 DNA Binding Assay” value at AR-VP16 [1] was “No (Agonist defined as a compound whose Emax in the ARVP16 DNA Binding Assay (Agonist mode) is >20x DMSO control)”. The molecule also came in with an IC50 on AR-VP16 [2] below 1 µM.

As to `N#Cc1ncc(N2C(=O)C3(CCC3)N(c3ccc(C(=O)NCC4CCCC4)c(F)c3)C2=S)cc1C(F)(F)F` [Compound 283, 4-(7-(6-Cyano-5-(trifluoromethyl)pyridin-3-yl)-8-oxo-6-thioxo-5,7-diazaspiro[3.4]octan-5-yl)-N-(cyclopentylmethyl)-2-fluorobenzamide], at AR-VP16 [1], the “ARVP16 DNA Binding Assay” value was “No (Agonist defined as a compound whose Emax in the ARVP16 DNA Binding Assay (Agonist mode) is >20x DMSO control)”. At AR-VP16 [2], this molecule gave an IC50 below 1 µM.

Take `Cc1cc(N2C(=O)C(C)(C)N(c3ccc(O)cc3)C2=S)cnc1C#N` [Compound 101, 5-(3-(4-Hydroxyphenyl)-4,4-dimethyl-5-oxo-2-thioxoimidazolidin-1-yl)-3-methylpicolinonitrile]: at AR-VP16 [1], the “ARVP16 DNA Binding Assay” value is “No (Agonist defined as a compound whose Emax in the ARVP16 DNA Binding Assay (Agonist mode) is >20x DMSO control)”. At AR-VP16 [2], this molecule yielded a concentration for half-maximal inhibition (IC50) above 1 µM.

`Cc1cc(N2C(=O)C3(CCC3)N(c3ccc(C(=O)Nc4cccc(F)c4)c(F)c3)C2=S)cnc1C#N` [Compound 298, 4-(7-(6-Cyano-5-methylpyridin-3-yl)-8-oxo-6-thioxo-5,7-diazaspiro[3.4]octan-5-yl)-2-fluoro-N-(3-fluorophenyl)benzamide]: the “ARVP16 DNA Binding Assay” value at AR-VP16 [1] is “No (Agonist defined as a compound whose Emax in the ARVP16 DNA Binding Assay (Agonist mode) is >20x DMSO control)”. The IC50 at AR-VP16 [2] is below 1 µM.

For `N#Cc1ncc(N2C(=O)C3(CCC3)N(c3ccc(OCC(=O)O)c(F)c3)C2=S)cc1C(F)(F)F` [Compound 228, 2-(4-(7-(6-Cyano-5-(trifluoromethyl)pyridin-3-yl)-8-oxo-6-thioxo-5,7-diazaspiro[3.4]octan-5-yl)-2-fluorophenoxy)acetic acid], the “ARVP16 DNA Binding Assay” value at AR-VP16 [1] is listed as “No (Agonist defined as a compound whose Emax in the ARVP16 DNA Binding Assay (Agonist mode) is >20x DMSO control)”. The molecule also showed an IC50 at AR-VP16 [2] above 1 µM.

As for `CNC(=O)c1ccc(N2C(=S)N(c3cnc(C#N)c(C)c3)C(=O)C23CCC3)c(F)c1` [Compound 104, 4-(7-(6-Cyano-5-methylpyridin-3-yl)-8-oxo-6-thioxo-5,7-diazaspiro[3.4]octan-5-yl)-3-fluoro-N-methylbenzamide], the “ARVP16 DNA Binding Assay” value on AR-VP16 [1] is on record as “No (Agonist defined as a compound whose Emax in the ARVP16 DNA Binding Assay (Agonist mode) is >20x DMSO control)”. This molecule yielded an IC50 on AR-VP16 [2] below 1 µM.

With `Cc1cc(N2C(=O)C3(CCC3)N(c3ccc(C(=O)Nc4ccccc4)c(F)c3)C2=S)cnc1C#N` [Compound 272, 4-(7-(6-Cyano-5-methylpyridin-3-yl)-8-oxo-6-thioxo-5,7-diazaspiro[3.4]octan-5-yl)-2-fluoro-N-phenylbenzamide], the “ARVP16 DNA Binding Assay” value at AR-VP16 [1] was “No (Agonist defined as a compound whose Emax in the ARVP16 DNA Binding Assay (Agonist mode) is >20x DMSO control)”. On AR-VP16 [2], this molecule displayed an IC50 below 1 µM.

For orientation: IC50 means the concentration needed to halve the response being measured.

The record behind these values is US9108944B2, “Androgen receptor modulators and uses thereof” (ARAGON PHARMACEUTICALS, INC., priority 2010, dated 2015).
